Data set [1] concerns the target T1, human GLP-1R (Homo sapiens, UniProt P43220).
T1 construct: expressed in transfected cells; host or cells: CHO-K1
As to the kind of experiment: cAMP accumulation assay (Hithunter cAMP Assay) in CHO-K1 cells stably expressing human GLP-1R. The data set is classed as cell-based. Particulars: CHO-K1 cells expressing human GLP-1R; in the presence of BSA (1%); 30-minute incubation; relative EC50. How it is done:
CHO-K1 cell line stably expressing human GLP-1R was used to detect the cAMP levels using Hithunter cAMP Assay for small molecules platform according manufacturer's instructions (DiscoverX, Cat #90-0075SM2). […] After a 30-minute incubation at 37° C., the cAMP antibody reagent, working solution (mixing 19-parts of lysis buffer, 5-parts of substrate reagent 1, 1-part of substrate reagent 2, and 25-parts of solution D (enzyme donor-labeled cAMP)), and solution A (enzyme […]) were added and incubated at room temperature in the dark. The resulting competitive assays were measured using Spectramax i3x Multi-Mode Detection system (Molecular Devices, USA). A relative EC50 was derived by nonlinear regression analysis by fitting to a 4-parameter logistic model in GraphPad Prism 9 software.
In general terms: cAMP levels reflect the balance of adenylyl cyclase and phosphodiesterase activity.

The nature of data set [2]: Pharmacokinetic testing in crab-eating macaques (cynomolgus monkey), IV and PO. Particulars: for pharmacokinetics compared to Orforglipron: comparison in words; for AUC(0-t) at 24 h / C0 / clearance / half-life / Cmax / bioavailability: cynomolgus monkey, plasma; for bioavailability: 2 mg/kg vs IV 0.5 mg/kg. In kind it is in vivo. How it is done:
Crab-eating macaques were administered the compound of the present invention via intravenous injection and oral gavage, respectively. Plasma samples were collected at various time points. The drug concentration of the test compound in the plasma tissue of the crab-eating macaques was detected using an LC-MS/MS analytical method, and a pharmacokinetic analysis was conducted.
Solvent for intravenous injection dosing formulation: […] (DMSO)+5% polyethylene glycol (PEG)-15 hydroxystearate+90% o physiological saline.
Preparation steps for the intravenous injection dosing solution: Accurately weigh the test compound and add it to the aforementioned solvent for intravenous injection dosing to prepare a solution with a final concentration of 0.25 mg/mL.
Solvent for oral dosing formulation: 5% dimethyl sulfoxide (DMSO)+5% polyethylene glycol (PEG)-15 hydroxystearate+90% physiological saline.
Preparation steps for the oral dosing solution: Accurately weigh the test compound and add it to the aforementioned solvent for oral dosing to prepare a solution or suspension with a final concentration of 0.4 mg/mL.
Intravenous injection(IV): Administered via […].
Oral (PO): Select an appropriately sized gavage needle and syringe, insert the gavage needle into the esophagus from the base of the tongue, until it is close to the cardia of the stomach, then inject the drug formulation and remove the gavage needle. When using disposable plastic gavage needles, use one per group.
Blood is collected via a cephalic vein or other suitable vein, with approximately 1 mL per sample, anticoagulated with K2-EDTA, and placed on ice after collection. After collection, blood samples are kept on ice and centrifuged to separate the plasma within 1 hour (centrifugation conditions: 2200 g, 10 minutes, 2-8° C.). Plasma samples are stored at −80° C. before analysis and the remaining plasma samples after analysis are continued to be stored at −80° C. • 4. Sample Detection Plasma concentration detection: The developed LC-MS/MS method is used to detect the compound in the plasma in this experiment. • 5. Data Analysis A non-compartmental model is used to analyze the blood concentration-time data using Phoenix® WinNonlin® (Version 7.0, Pharsight, Mountain View, CA).

Structures are written as SMILES.

T1 sequence (P43220 24-463): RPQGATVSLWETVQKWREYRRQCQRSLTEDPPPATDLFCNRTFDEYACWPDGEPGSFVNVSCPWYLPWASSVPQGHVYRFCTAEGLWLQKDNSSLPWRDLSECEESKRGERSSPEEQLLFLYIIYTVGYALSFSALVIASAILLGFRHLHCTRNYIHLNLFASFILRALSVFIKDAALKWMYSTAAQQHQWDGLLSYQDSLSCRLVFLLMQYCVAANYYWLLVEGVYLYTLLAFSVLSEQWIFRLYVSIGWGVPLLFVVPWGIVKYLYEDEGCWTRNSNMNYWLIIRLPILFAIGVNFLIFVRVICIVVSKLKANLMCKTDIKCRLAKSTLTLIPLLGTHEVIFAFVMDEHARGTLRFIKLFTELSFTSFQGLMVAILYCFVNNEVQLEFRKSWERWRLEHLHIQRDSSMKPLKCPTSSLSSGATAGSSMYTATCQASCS

As for `Cc1cc(-n2nc3c(c2-n2ccn(-c4ccc5c(cnn5C)c4F)c2=O)[C@H](C)N(C(=O)c2cc4cc(C5CCOCC5)ccc4n2[C@@]2(c4nnn[nH]4)[C@@H]4CN([C@H]5CC[C@@H](O)CC5)C[C@@H]42)CC3)cc(C)c1F` (single isomer, unassigned) [Compound C-18], the EC50 in data set [1] was 0.6 nM.

As to `Cc1cc(-n2nc3c(c2-n2ccn(-c4ccc5c(cnn5C)c4F)c2=O)[C@H](C)N(C(=O)c2cc4cc([C@H]5CCOC(C)(C)C5)ccc4n2[C@@]2(c4noc(=O)[nH]4)[C@@H]4CN(c5ncccn5)C[C@@H]42)CC3)cc(C)c1F` [Compound C-12, 3-[(1R,5S,6S)-6-{5-[(4S)-2,2-dimethyloxan-4-yl]-2-[(4S)-3-[3-(4-fluoro-1-methyl-1H-indazol-5-yl)-2-oxo-2,3-dihydro-1H-imidazol-1-yl]-2-(4-fluoro-3,5-dimethylphenyl)-4-methyl-2H,4H,5H,6H,7H-pyrazolo[4,3-c]pyridine-5-carbonyl]-1H-indol-1-yl}-3-(pyrimidin-2-yl)-3-azabicyclo[3.1.0]hexan-6-yl]-4,5-dihydro-1,2,4-oxadiazol-5-one], the “pharmacokinetics compared to Orforglipron” value in data set [2] is “longer half-life, higher exposure, lower clearance rate, and greater bioavailability”. Further, in data set [2] (IV, 0.5 mg/kg), the AUC(0-t) at 24 h was determined as 6290 ng·h/mL, the C0 was determined as 6730 ng/mL, the clearance came out at 1.3 mL/min/kg and the half-life is 6.3 h. In data set [2] (PO, 2 mg/kg), the AUC(0-t) at 24 h worked out at 6160 ng·h/mL, the concentration peaked (Cmax) at 514 ng/mL and the half-life was 5.9 h. The bioavailability in data set [2] (PO) stood at 24.5%.

Turning to `Cc1cc(-n2nc3c(c2-n2ccn(-c4ccc5c(cnn5C)c4F)c2=O)[C@H](C)N(C(=O)c2cc4cc([C@H]5CCOC(C)(C)C5)ccc4n2[C@@]2(c4noc(=O)[nH]4)[C@@H]4CN(c5ccccn5)C[C@@H]42)CC3)cc(C)c1F` [Compound C-22, 3-[(1R,5S,6S)-6-{5-[(4S)-2,2-dimethyloxan-4-yl]-2-[(4S)-3-[3-(4-fluoro-1-methyl-1H-indazol-5-yl)-2-oxo-2,3-dihydro-1H-imidazol-1-yl]-2-(4-fluoro-3,5-dimethylphenyl)-4-methyl-2H,4H,5H,6H,7H-pyrazolo[4,3-c]pyridine-5-carbonyl]-1H-indol-1-yl}-3-(pyridin-2-yl)-3-azabicyclo[3.1.0]hexan-6-yl]-4,5-dihydro-1,2,4-oxadiazol-5-one], in data set [2], the “pharmacokinetics compared to Orforglipron” value was “longer half-life, higher exposure, lower clearance rate, and greater bioavailability”. Also, in data set [2] (IV, 0.5 mg/kg), the AUC(0-t) at 24 h is 7560 ng·h/mL, the C0 was determined as 3810 ng/mL, the clearance stood at 0.9 mL/min/kg and the half-life was 10.3 h. Besides, in data set [2] (PO, 2 mg/kg), the AUC(0-t) at 24 h is 3590 ng·h/mL, the Cmax was found to be 236 ng/mL and the half-life is 13.6 h. In data set [2] (PO), the bioavailability was determined as 11.9%.

On to `Cc1cc(-n2nc3c(c2-n2ccn(-c4ccc5c(cnn5C)c4F)c2=O)[C@H](C)N(C(=O)c2cc4cc([C@H]5CCOC(C)(C)C5)ccc4n2[C@@]2(c4noc(=O)[nH]4)C[C@@H]2C)CC3)cc(C)c1F` [Orforglipron, reference compound], for which, in data set [2] (IV, 0.5 mg/kg), the AUC(0-t) at 24 h amounted to 1780 ng·h/mL, the C0 was 1170 ng/mL, the clearance was 4.6 mL/min/kg and the half-life was 3.4 h. In addition, in data set [2] (PO, 2 mg/kg), the AUC(0-t) at 24 h was 453 ng·h/mL, the Cmax is 37.5 ng/mL and the half-life was 6.2 h. The same compound gave a bioavailability in data set [2] (PO) of 6.3%.

With `Cc1cc(-n2nc3c(c2-n2ccn(-c4ccc5c(cnn5C)c4F)c2=O)[C@H](C)N(C(=O)c2cc4cc(C5CCOCC5)ccc4n2[C@@]2(c4nnn[nH]4)[C@@H]4CN([C@H]5CC[C@H](O)CC5)C[C@@H]42)CC3)cc(C)c1F` (single isomer, unassigned) [Compound C-17], the EC50 in data set [1] came to 0.2 nM.

In general, EC50 refers to the concentration needed to bring the measured effect to its halfway point. One may read the AUC(0-t) as exposure summed from dosing to a finite time, without extrapolation to infinity. Lower therefore signals less exposure. As a reminder, the half-life is the time in which the quantity being followed falls by half. A higher half-life goes with slow loss. The term Cmax denotes the peak of the concentration-time curve. Usually bioavailability stands for the share of a dose that reaches the circulation, judged against a reference dose that is usually intravenous. Read a low bioavailability as little systemic uptake.

Source of the values: patent US20260285858A1, “GLP-1 RECEPTOR TARGETING COMPOUNDS AND USES THEREOF” (FORTVITA BIOLOGICS INC., priority 2023, published 2026).
